Laboratory results as given in patent US20100221398A1, “PRESERVATIVE” (priority 2007, published 2010).

Key:
[1] = tested on: A. niger conidiospores; experiment: Mould growth in bottles containing 1 mM 4-MCA + 1 mM putative inhibitor; assay type: cell-based, Aspergillus niger; conditions: 1 mM 4-MCA + 1 mM compound
Description: (§1) All compounds were tested to see if they prevented the degradation of 4-MCA by adding 10^6 A. niger conidiospores/ml to ACM medium at pH 4.0 containing 1 mM 4-methylcinnamic acid+1 mM putative inhibitor. Bottles were incubated at 28° C. and shaken at 120 rpm on an orbital shaker. Samples were taken at 5 and 72 hours.
Furthermore, other compounds generally more mould-toxic than the compounds listed in Table 2, were not able to inhibit mould growth when allied with 4-MCA at 1 mM e.g. (2,4-decadienal).

[2] = tested on: PadA1 activity in A. niger conidiospores; experiment: 4-MCA cloud disappearance (OD 600 nm) assay for PadA1 activity in mould spores; assay type: cell-based, Aspergillus niger; conditions: 1 mM 4-methylcinnamic acid + 1 mM putative inhibitor, 10^6 conidiospores/ml, ACM pH 4.0, 28 C, samples at 5 and 72 hours
Description: FIG. 2—illustrates the disappearance of the dense cloud of 4-methylcinnamic acid after addition of A. niger spores. The strain of A. niger used is A. niger N402. 10^6 A. niger conidiospores/ml were added to ACM medium (Aspergillus Complete Medium—which contains per one litre of water, 20 g glucose, 1.5 g casamino acids, 2 g bacteriological peptone, 1.5 g yeast extract, 6 g […], 0.52 g potassium chloride, 0.52 g magnesium sulphate heptahydrate, 1.52 g potassium orthophosphate, 1 mg ferrous sulphate, 1 mg zinc sulphate) at pH 4.0 containing 1 mM 4-methylcinnamic acid at time 0. Replicate cultures of 10 mls medium in 30 ml sealed bottles were incubated at 28° C. and shaken at 120 rpm on an orbital shaker. Each point represents the mean value of two bottles removed, sampled, and tested in a spectrophotometer at 600 nm;
10^6 A. niger conidiospores/ml were added to ACM medium at pH 4.0 containing 1 mM 4-methylcinnamic acid at time 0 (control—circles). Replicate cultures contained 1 mM 4-methylcinnamic acid+1 mM cinnamaldehyde (squares). Bottles were incubated at 28° C. and shaken at 120 rpm on an orbital shaker.
In the examples below a carboxylic acid similar to sorbic acid was used as it has unexpected properties which allow it to be easily assayed. The acid used was 4-methylcinnamic acid (4-MCA), which like sorbic acid is degraded by A. niger spores.
Unexpectedly 4-MCA forms a dense white cloud when added to water or growth media for moulds (such as ACM). The opacity of the cloud, when measured at an OD of 600 nm, is directly proportional to the concentration of 4-MCA. This makes it easy to assay for changes in 4-MCA levels. Up until now degradation of 4-MCA and sorbic acid has been determined through the detection of the volatile products produced after decarboxylation. The volatile products can be detected by using GCMS (Gas Chromatography/Mass Spectrometry), which is a slow and time consuming process.
It is understood that PadA1 in the germinating mould spores degrades the 4-MCA causing the white cloud to progressively disappear. Cloud disappearance is also accompanied by appearance of 4-methylstyrene in the headspace above the liquid medium (as illustrated in FIG. 3), which is measured by GCMS.
as §1

[3] = tested on: A. niger N402 conidiospores; experiment: MIC determination in ACM medium pH 4.0; assay type: cell-based, Aspergillus niger; conditions: 1000 A. niger N402 conidiospores/ml, ACM pH 4.0, 28 C, 28 days, triplicate
Description: The possibility that the compounds found to inhibit 4-MCA degradation were acting as toxic agents was examined, by determination of their MIC (Minimum Inhibitory Concentration) values. The MIC value is the lowest concentration of inhibitor that will completely prevent growth of a microbe. In this case, MIC values were determined by preparation of a triplicate series of bottles of ACM medium (pH 4.0 10 mls) each bottle containing progressively higher concentrations of an inhibitor. Bottles were inoculated with 1000 A. niger N402 conidiospores/ml and were incubated at 28° C. for 28 days. The MIC was the lowest concentration of inhibitor preventing mould growth in all three replicates, and any other higher concentration of inhibitor.

[4] = tested on: Aspergillus niger strain N402 conidiospores; experiment: Spoilage of synthetic soft drink (ACM pH 4.0) with 300 ppm sorbic acid; assay type: cell-based; conditions: 300 ppm sorbic acid (2.68 mM) without PadA1 inhibitor, 28 days at 28 C
Description: Tests were carried out using ACM medium, pH 4.0, as a synthetic soft drink. Sorbic acid was added to the ACM, synthetic soft drink, at 300 ppm, which is the maximum level permitted in Europe.
The method used involved placing 10 ml of ACM pH 4.0+300 ppm sorbic acid (2.68 mM) in glass bottles (all experiments were carried out in triplicate) and inncoculating each 10 mls with 1000 conidiospores per ml of Aspergillus niger strain N402. Growth was measured after 28 days incubation at 28° C. PadA1 inhibitors of Formula I were added at 0, 0.025 mM, 0.05 mM, 0.1 mM, 0.15 mM, 0.2 mM, 0.3 mM, 0.4 mM, 0.5 mM, 0.6 mM, 0.8 mM, 1 mM.

Row | Structure (SMILES) | mould growth in bottles with 4-MCA + compound [1] | inhibition of degradation of 4-MCA by germinating conidiospores of A. niger [2] | also measured
1 | CCC=CC=CC=O [2,4-Heptadienal] | not | – | –
2 | CCCCCC=CC=CC=O [2,4-decadienal] | Mould growth occurred | does not block PadA1 activity | MIC (Minimum Inhibitory Concentration), comparison in words [3]: lower MIC than any of the compounds listed on Table 2
3 | O=CC=Cc1ccccc1 [Cinnamaldehyde] | – | inhibits the degradation | –
4 | O=C(O)C#Cc1ccccc1 [Phenyl propiolic acid] | – | inhibited degradation | –
5 | O=CC#Cc1ccccc1 [phenyl propargyl aldehyde] | – | inhibited degradation | –
6 | CC=CC=CC(=O)O [sorbic acid, 2,4-hexadienoic acid] | – | – | prevention of spoilage by A. niger conidiospores of the synthetic soft drink, sorbic acid alone [4]: insufficient to prevent spoilage
